Results published in ChEMBL document CHEMBL5365409, “Novel series of tunable µOR modulators with enhanced brain penetration for the treatment of opioid use disorder, pain and neuropsychiatric indications” (Bioorg Med Chem Lett, 2023).
pEC50, pIC50: −log10 of the molar value. The source made the active and inactive calls. The rule behind the calls is not given here.

How the values were obtained:
Mu-type opioid receptor [1] = biological target: T1, Mu-type opioid receptor (Homo sapiens, UniProt P35372); assay: Agonist activity at human mu opioid receptor stably transfected in CHO cells by cAMP assay; type: functional, cell-based
Mu-type opioid receptor [2] = biological target: T1, Mu-type opioid receptor; assay: Antagonist activity at human mu opioid receptor stably transfected in CHO cells assessed as decrease in DAMGO induced receptor activation by cAMP assay; type: functional, cell-based
Mu-type opioid receptor [3] = biological target: T1, Mu-type opioid receptor; assay: Antagonist activity at human mu opioid receptor stably transfected in CHO cells assessed as maximal inhibition of DAMGO induced receptor activation by cAMP assay relative to naltrexone; type: functional, cell-based; conditions: filed as antagonist
[4] = In vivo receptor occupancy at mu opioid receptor in Sprague-Dawley rat brain at 10 mg/kg, sc measured by LC/MS/MS analysis relative to control; type: functional
Rattus norvegicus [5] = assay: Antianalgesic activity in Sprague-Dawley rat assessed as decrease in (1R,2R)-N-((S)-2-(dimethylamino)-3-(4-hydroxy-2-methylphenyl)propyl)-2-methyl-2-phenylcyclopropane-1-carboxamide induced analgesic effect by measuring withdrawal latency at 10 mg/kg, sc by hot plate assay; type: functional, organism-based
[6] = Plasma concentration in Sprague-Dawley rat at 30 mg/kg, po and measured after 1 hr; type: ADME, organism-based
[7] = Drug concentration in Sprague-Dawley rat brain at 30 mg/kg, po and measured after 1 hr; type: ADME, organism-based; conditions: read-out: Ct
[8] = Ratio of drug concentration in brain to plasma of Sprague-Dawley rat at 30 mg/kg, po measured after 1 hr; type: ADME, organism-based
Mu-type opioid receptor [9] = biological target: T1, Mu-type opioid receptor; assay: Agonist activity at human mu opioid receptor stably transfected in CHO cells assessed as maximal response by cAMP assay relative to DAMGO; type: functional, cell-based
Rattus norvegicus [10] = assay: Antianalgesic activity in Sprague-Dawley rat assessed as decrease in (1R,2R)-N-((S)-2-(dimethylamino)-3-(4-hydroxy-2-methylphenyl)propyl)-2-methyl-2-phenylcyclopropane-1-carboxamide induced analgesic effect by measuring withdrawal latency at 10 to 20 mg/kg, sc by hot plate assay; type: functional, organism-based; conditions: dose 10-20 mg/kg
Rattus norvegicus [11] = assay: Analgesic activity in Sprague-Dawley rat assessed as increase in withdrawal latency at 10 mg/kg, sc by hot plate assay; type: functional, organism-based
Rattus norvegicus [12] = assay: Analgesic activity in Sprague-Dawley rat assessed as increase in withdrawal latency at 0.3 to 10 mg/kg, sc by hot plate assay; type: functional, organism-based; conditions: dose 0.3-10 mg/kg, time <= 90.0 min

T1 sequence (P35372 whole entry): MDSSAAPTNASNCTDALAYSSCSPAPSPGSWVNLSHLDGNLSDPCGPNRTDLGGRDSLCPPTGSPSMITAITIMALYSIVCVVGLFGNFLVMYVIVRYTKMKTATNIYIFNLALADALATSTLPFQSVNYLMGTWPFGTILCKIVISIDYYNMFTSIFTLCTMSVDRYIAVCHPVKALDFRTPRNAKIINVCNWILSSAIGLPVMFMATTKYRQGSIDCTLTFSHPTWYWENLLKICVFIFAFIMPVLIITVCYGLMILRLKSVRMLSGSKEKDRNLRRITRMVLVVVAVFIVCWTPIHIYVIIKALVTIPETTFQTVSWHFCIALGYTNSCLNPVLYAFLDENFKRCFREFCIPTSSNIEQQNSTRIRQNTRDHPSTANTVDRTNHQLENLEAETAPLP

Compound	pEC50 (Mu-type opioid receptor [1])	concentration at 1 h [6]	concentration at 1 h [7]	BPR [8]	other results
CN(C)[C@H](CNC(=O)[C@@H]1C[C@]1(C)c1ccccc1)Cc1ccc(O)cc1Cl	< 5.52	–	–	–	pIC50 (Mu-type opioid receptor [2]): 7.54; Imax (Mu-type opioid receptor [3]): 100%; Activity [4]: 70%; Activity (Rattus norvegicus [5]): Active
CN(C)[C@H](CNC(=O)N[C@@H](c1ccccc1)C1CC1)Cc1ccc(O)cc1	6.98	–	–	–	–
C[C@H](OC(=O)NC[C@H](Cc1ccc(O)cc1)N(C)C)c1ccccc1	6.74	149 ng/mL	481 ng/g	323%	–
C[C@H](OC(=O)NC[C@@H](Cc1ccc(O)cc1)N(C)C)c1ccccc1	< 5.52	–	–	–	–
Cc1cc(O)cc(C)c1C[C@@H](CNC(=O)[C@@H]1C[C@@]1(C)c1ccccc1)N(C)C	8.70	–	–	–	Emax (Mu-type opioid receptor [9]): 27%; Activity (Rattus norvegicus [10]): Active; Activity (Rattus norvegicus [11]): inactive
CN(C)[C@H](CNC(=O)[C@H]1C[C@@]1(C)c1ccccc1)Cc1ccc(O)cc1	< 5.52	–	–	–	pIC50 (Mu-type opioid receptor [2]): < 5.52
Cc1cc(O)ccc1C[C@@H](CNC(=O)[C@@H]1C[C@@]1(C)c1ccccc1)N(C)C	9.48	–	–	–	Emax (Mu-type opioid receptor [9]; filed as agonist): 100%
C[C@H](CC(=O)NC[C@H](Cc1ccc(O)cc1)N(C)C)c1ccccc1	–	23.3 ng/mL	29.2 ng/g	125%	Emax (Mu-type opioid receptor [9]; filed as agonist): 68%
C[C@@H](CC(=O)NC[C@H](Cc1ccc(O)cc1)N(C)C)c1ccccc1	–	16.9 ng/mL	14.4 ng/g	85%	Emax (Mu-type opioid receptor [9]; filed as agonist): 68%
C[C@@H](OC(=O)NC[C@H](Cc1ccc(O)cc1)N(C)C)c1ccccc1	7.21	–	–	–	–
CN(C)[C@H](CNC(=O)N[C@H](c1ccccc1)C1CC1)Cc1ccc(O)cc1	8.14	–	–	–	–
CN(C)[C@H](CNC(=O)O[C@H](c1ccccc1)C1CC1)Cc1ccc(O)cc1	6.11	–	–	–	Emax (Mu-type opioid receptor [9]): 26%
C[C@@H](OC(=O)NC[C@@H](Cc1ccc(O)cc1)N(C)C)c1ccccc1	6.02	–	–	–	–
CN(C)[C@H](CNC(=O)[C@@H]1C[C@]1(C)c1ccccc1)Cc1ccc(O)cc1	< 5.52	–	–	–	pIC50 (Mu-type opioid receptor [2]): 6.96; Imax (Mu-type opioid receptor [3]): 100%; Activity (Rattus norvegicus [10]): Active; Activity (Rattus norvegicus [11]): inactive
CN(C)[C@@H](CNC(=O)N[C@@H](c1ccccc1)C1CC1)Cc1ccc(O)cc1	6.61	–	–	–	–
CN(C)[C@@H](CNC(=O)N[C@H](c1ccccc1)C1CC1)Cc1ccc(O)cc1	6.46	–	–	–	–
CN(C)[C@H](CNC(=O)[C@H]1C[C@]1(C)c1ccccc1)Cc1ccc(O)cc1	< 5.52	–	–	–	pIC50 (Mu-type opioid receptor [2]): 6.68; Imax (Mu-type opioid receptor [3]): 100%
C[C@H](NC(=O)NC[C@H](Cc1ccc(O)cc1)N(C)C)c1ccccc1	7.68	190 ng/mL	33 ng/g	17%	Emax (Mu-type opioid receptor [9]; filed as agonist): 48%
C[C@@H](CC(=O)NC[C@H](Cc1c(F)cc(O)cc1F)N(C)C)c1ccccc1	–	5.4 ng/mL	3.9 ng/g	72%	Emax (Mu-type opioid receptor [9]): 33%
CN(C)[C@H](CNC(=O)[C@@H]1C[C@@]1(C)c1ccccc1)Cc1ccc(O)cc1	9.06	3.7 ng/mL	3.3 ng/g	89%	Emax (Mu-type opioid receptor [9]; filed as agonist): 90%; Activity (Rattus norvegicus [12]): Dose-Dependent Effect
